Measured values published in the NIST ThermoML archive (doi:10.1021/je0498053).

What was measured:
[1] = xn = mol fraction of the nth substance listed; conditions: 101.3 kPa, Liquid
[2] = 101.3 kPa, Liquid

CCCCN [1-butanamine] + CCCCC(C)O
[1], x1 = 1
Conditions	mass density [kg/m3]	viscosity [mPa·s]
303.15 K	732.1	0.46
313.15 K	722.9	0.4
323.15 K	712.7	0.36

CCCC(O)CC (stereo unspecified) [3-hexanol] + CCCCN
[1]
Conditions	mass density, 303.15 K [kg/m3]	mass density, 313.15 K [kg/m3]	mass density, 323.15 K [kg/m3]	viscosity, 303.15 K [mPa·s]	viscosity, 313.15 K [mPa·s]	viscosity, 323.15 K [mPa·s]
x2 = 0	810.2	801.7	792.8	3.52	2.34	1.58
x2 = 0.1	806.4	798.4	789.8	2.85	2.2	1.44
x2 = 0.2	801.4	793.5	785	2.26	1.79	1.24
x2 = 0.3	795.6	787.5	776.9	1.78	1.39	1.07
x2 = 0.3999	788.6	780.5	770	1.41	1.09	0.91
x2 = 0.5	780.4	772	763.2	1.13	0.89	0.76
x2 = 0.5999	772	763.5	754.5	0.92	0.78	0.65
x2 = 0.7	762.9	754.1	745.2	0.76	0.68	0.55
x2 = 0.7999	753	743.6	734.4	0.65	0.58	0.48
x2 = 0.9	742	732.7	723.2	0.54	0.46	0.4

CCCCC(C)O (stereo unspecified) [2-hexanol] + CCCCN
[1]
Conditions	mass density, 303.15 K [kg/m3]	mass density, 313.15 K [kg/m3]	mass density, 323.15 K [kg/m3]	viscosity, 303.15 K [mPa·s]	viscosity, 313.15 K [mPa·s]	viscosity, 323.15 K [mPa·s]
x2 = 0	806.4	798.4	790.1	3.23	2.29	1.64
x2 = 0.1	802	794.2	786	2.67	1.97	1.45
x2 = 0.2	796.7	788.9	780.6	2.19	1.68	1.26
x2 = 0.3	791.5	783.7	775.3	1.78	1.4	1.1
x2 = 0.4	785	776.9	768.5	1.47	1.17	0.93
x2 = 0.5	777.7	769.4	760.8	1.2	0.98	0.79
x2 = 0.6	769.8	761.4	751.1	0.97	0.81	0.67
x2 = 0.6999	760.7	752.1	741.6	0.79	0.68	0.57
x2 = 0.8	751.3	742.7	732.4	0.65	0.56	0.47
x2 = 0.9	742.1	732.9	722.9	0.53	0.47	0.4

CCCCN [1-butanamine] + CCCC(C)(C)O
[1], x1 = 1
Conditions	mass density [kg/m3]	viscosity [mPa·s]
303.15 K	732.1	0.46
313.15 K	722.9	0.4
323.15 K	712.7	0.36

CCCCN [1-butanamine] + CCCC(C)CO
[1], x1 = 1
Conditions	mass density [kg/m3]	viscosity [mPa·s]
303.15 K	732.1	0.46
313.15 K	722.9	0.4
323.15 K	712.7	0.36

CCCCN [1-butanamine] + CC(C)CC(C)O
[1], x1 = 1
Conditions	mass density [kg/m3]	viscosity [mPa·s]
303.15 K	732.1	0.46
313.15 K	722.9	0.4
323.15 K	712.7	0.36

CCCC(O)CC (stereo unspecified) [3-hexanol]
[2]
Conditions	mass density [kg/m3]	viscosity [mPa·s]
303.15 K	810.2	3.52
313.15 K	801.7	2.34
323.15 K	792.8	1.58

CC(C)CC(C)O (stereo unspecified) [4-methyl-2-pentanol] + CCCCN
[1]
Conditions	mass density, 303.15 K [kg/m3]	mass density, 313.15 K [kg/m3]	mass density, 323.15 K [kg/m3]	viscosity, 303.15 K [mPa·s]	viscosity, 313.15 K [mPa·s]	viscosity, 323.15 K [mPa·s]
x2 = 0	799.3	790.7	782	3.23	2.24	1.55
x2 = 0.1	794.8	787	778.6	2.61	1.91	1.4
x2 = 0.2	790.7	782.9	774.5	2.06	1.57	1.21
x2 = 0.3	785.2	777.3	768.9	1.66	1.31	1.02
x2 = 0.3999	779.6	771.5	763	1.35	1.09	0.87
x2 = 0.5	772.8	764.6	755.9	1.09	0.91	0.75
x2 = 0.6	766	757.5	748.6	0.92	0.77	0.64
x2 = 0.6999	758	749.4	740.3	0.77	0.65	0.54
x2 = 0.7999	749.7	740.9	731.1	0.64	0.55	0.47
x2 = 0.9	740.8	731.7	721.7	0.56	0.48	0.41

CCCC(C)CO (stereo unspecified) [2-methyl-1-pentanol] + CCCCN
[1]
Conditions	mass density, 303.15 K [kg/m3]	mass density, 313.15 K [kg/m3]	mass density, 323.15 K [kg/m3]	viscosity, 303.15 K [mPa·s]	viscosity, 313.15 K [mPa·s]	viscosity, 323.15 K [mPa·s]
x2 = 0	816.8	809.5	801.5	4.55	3.18	2.25
x2 = 0.1	810.3	803	795.3	3.38	2.51	1.85
x2 = 0.2	804.8	797.4	789.6	2.67	2.06	1.57
x2 = 0.2999	798.2	790.6	782.6	2.1	1.65	1.32
x2 = 0.4	791	783.2	775	1.67	1.35	1.08
x2 = 0.5	783.6	775.7	767.2	1.37	1.11	0.91
x2 = 0.6	774.5	766.3	757.7	1.1	0.9	0.75
x2 = 0.6999	764.7	756.2	747.4	0.89	0.72	0.6
x2 = 0.8	753.9	745.2	736.1	0.69	0.59	0.5
x2 = 0.8999	742.9	734.5	724.3	0.54	0.48	0.42

CCCC(C)(C)O [2-methyl-2-pentanol]
[2]
Conditions	mass density [kg/m3]	viscosity [mPa·s]
303.15 K	810.8	2.93
313.15 K	802.4	2.06
323.15 K	793.5	1.46

CCCCC(C)O (stereo unspecified) [2-hexanol]
[2]
Conditions	mass density [kg/m3]	viscosity [mPa·s]
303.15 K	806.4	3.23
313.15 K	798.4	2.29
323.15 K	790.1	1.64

CCCC(C)(C)O [2-methyl-2-pentanol] + CCCCN
[1]
Conditions	mass density, 303.15 K [kg/m3]	mass density, 313.15 K [kg/m3]	mass density, 323.15 K [kg/m3]	viscosity, 303.15 K [mPa·s]	viscosity, 313.15 K [mPa·s]	viscosity, 323.15 K [mPa·s]
x2 = 0	810.8	802.4	793.5	2.93	2.06	1.46
x2 = 0.1	806.7	798.2	789.2	2.62	1.88	1.34
x2 = 0.2	801.5	793.1	784	2.25	1.66	1.2
x2 = 0.3	795.7	787.2	778.2	1.86	1.41	1.04
x2 = 0.4	788.8	780.2	771.2	1.55	1.2	0.92
x2 = 0.4999	781.4	772.8	763.7	1.26	1	0.79
x2 = 0.5999	772.9	764.2	754.7	1.01	0.83	0.67
x2 = 0.7	763.8	755	745.1	0.82	0.69	0.57
x2 = 0.8	753.4	744.3	734.3	0.66	0.57	0.48
x2 = 0.9	742.4	733.3	723.6	0.54	0.47	0.41

CC(C)CC(C)O (stereo unspecified) [4-methyl-2-pentanol]
[2]
Conditions	mass density [kg/m3]	viscosity [mPa·s]
303.15 K	799.3	3.23
313.15 K	790.7	2.24
323.15 K	782	1.55

CCCCN [1-butanamine] + CCCC(O)CC
[1], x1 = 1
Conditions	mass density [kg/m3]	viscosity [mPa·s]
303.15 K	732.1	0.46
313.15 K	722.9	0.4
323.15 K	712.7	0.36

CCCC(C)CO (stereo unspecified) [2-methyl-1-pentanol]
[2]
Conditions	mass density [kg/m3]	viscosity [mPa·s]
303.15 K	816.8	4.55
313.15 K	809.5	3.18
323.15 K	801.5	2.25

CCCCN [1-butanamine]
[2]
Conditions	mass density [kg/m3]	viscosity [mPa·s]
303.15 K	732.1	0.46
313.15 K	722.9	0.4
323.15 K	712.7	0.36
